Several values for one entry are separate records, joined by “and”; a condition that tells them apart may be missing. Identical values can stand only once. Inconclusive results and toxic doses are left out. No stated cut-off is given here; in the data, active means T/C of 150% or more; inactive means T/C below 125%.
Tested on: L1210 leukemia ip in BDF1 mice, survival T/C
Test: NCI In Vivo Anticancer Drug Screen. Data for tumor model L1210 Leukemia (intraperitoneal) in B6D2F1 (BDF1) mice
Settings: endpoint: mean survival time, higher = longer survival
How it was run: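 Read-out is survival time, reported as the treated-group measurement over the vehicle-control measurement.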

[1] = dose: 100.0 mg/kg/injection, schedule: Q04DX002 (ip), vehicle: Klucel (hydroxypropylcellulose) (HPC)
[2] = dose: 200.0 mg/kg/injection, schedule: Q04DX002 (ip), vehicle: Klucel (hydroxypropylcellulose) (HPC)
[3] = dose: 400.0 mg/kg/injection, schedule: Q04DX002 (ip), vehicle: Klucel (hydroxypropylcellulose) (HPC)
[4] = dose: 100.0 mg/kg/injection, schedule: Q01DX001 (ip), vehicle: saline
[5] = dose: 200.0 mg/kg/injection, schedule: Q01DX001 (ip), vehicle: saline
[6] = dose: 400.0 mg/kg/injection, schedule: Q01DX001 (ip), vehicle: saline
[7] = dose: 100.0 mg/kg/injection, schedule: Q01DX009 (ip), vehicle: saline with Tween-80
[8] = dose: 100.0 mg/kg/injection, schedule: Q04DX003 (ip), vehicle: saline
[9] = dose: 100.0 mg/kg/injection, schedule: Q04DX003 (ip), vehicle: Klucel (hydroxypropylcellulose) (HPC)
[10] = dose: 200.0 mg/kg/injection, schedule: Q04DX003 (ip), vehicle: Klucel (hydroxypropylcellulose) (HPC)
[11] = dose: 400.0 mg/kg/injection, schedule: Q04DX003 (ip), vehicle: Klucel (hydroxypropylcellulose) (HPC)
[12] = dose: 50.0 mg/kg/injection, schedule: Q01DX001 (ip), vehicle: saline
[13] = dose: 200.0 mg/kg/injection, schedule: Q01DX009 (ip), vehicle: saline with Tween-80
[14] = dose: 25.0 mg/kg/injection, schedule: Q01DX009 (ip), vehicle: saline
[15] = dose: 50.0 mg/kg/injection, schedule: Q01DX009 (ip), vehicle: saline
[16] = dose: 100.0 mg/kg/injection, schedule: Q04DX003 (ip), vehicle: saline with Tween-80
[17] = dose: 200.0 mg/kg/injection, schedule: Q04DX003 (ip), vehicle: saline with Tween-80
[18] = dose: 400.0 mg/kg/injection, schedule: Q04DX003 (ip), vehicle: saline with Tween-80

Measured: T/C

CCOC(=O)CNc1cccc(C)c1C
inactive: [1] 100 % of control | [2] 102 % of control | [3] 100 % of control

CCN(CC)c1ccc(S(=O)(=O)NC(=O)OC)cc1
inactive: [1] 98 % of control | [2] 112 % of control | [3] 112 % of control

O=c1[nH]c(=S)c2ncn(C3OC(CO)C(O)C3O)c2[nH]1 (centres undefined)
inactive: [4] 107 % of control | [5] 101 % of control | [6] 104 % of control

Cc1ccc(/C=C2\CCC3C(=O)CCCC3C2=O)cc1 (centres undefined)
inactive: [4] 107 % of control | [5] 89 % of control

COc1cc(NC(=O)c2ccc(C(=O)Nc3cc(OC)cc4cccnc34)cc2)c2ncccc2c1
inactive: [4] 94 % of control | [5] 100 % of control | [6] 103 % of control

CCCCNC(C)(C)C(SSSC(c1ccco1)C(C)(C)NCCCC)c1ccco1 (centres undefined)
inactive: dose: 50.0 mg/kg/injection, schedule: Q01DX009 (ip), vehicle: saline with Tween-80 91 % of control | [7] 96 % of control | [8] 98 % of control | dose: 200.0 mg/kg/injection, schedule: Q04DX003 (ip), vehicle: saline 100 % of control

CC1(C)Cc2cccc(C(=O)CCCN3CCCCC3)c2O1
inactive: [4] 104 % of control

Oc1ccc(C(=S)N2CCOCC2)cc1
inactive: [9] 97 % of control | [10] 97 % of control | [11] 98 % of control

Cn1c(=O)c2[nH]c(C3CCC3)nc2n(C)c1=O
inactive: [12] 110 % of control | [4] 113 % of control | [5] 101 % of control | [6] 107 % of control

N#CCCCN=[N+]=[N-]
inactive: dose: 37.5 mg/kg/injection, schedule: Q04DX003 (ip), vehicle: saline 104 % of control

CCC(=O)Nc1cccc(Cl)c1
inactive: [7] 97 % of control | [9] 97 % of control | [13] 103 % of control | [10] 97 % of control | [11] 108 % of control

Cc1ccc(N=Nc2c(O)ccc3ccccc23)c([N+](=O)[O-])c1
inactive: dose: 100.0 mg/kg/injection, schedule: Q01DX001 (ip), vehicle: other 96 % of control | dose: 100.0 mg/kg/injection, schedule: Q04DX003 (ip), vehicle: other 95 % of control | dose: 200.0 mg/kg/injection, schedule: Q01DX001 (ip), vehicle: other 95 % of control | dose: 200.0 mg/kg/injection, schedule: Q04DX003 (ip), vehicle: other 91 % of control | dose: 400.0 mg/kg/injection, schedule: Q01DX001 (ip), vehicle: other 96 % of control | dose: 400.0 mg/kg/injection, schedule: Q04DX003 (ip), vehicle: other 93 % of control

COc1ccc(C2=C(C)CC3c4cc(OC)c(OC)cc4CCN3C2)cc1OC (centres undefined)
inactive: dose: 52.0 mg/kg/injection, schedule: Q01DX001 (ip), vehicle: carboxymethylcellulose (CMC) 101 % of control | dose: 78.0 mg/kg/injection, schedule: Q01DX001 (ip), vehicle: carboxymethylcellulose (CMC) 104 % of control | dose: 177.0 mg/kg/injection, schedule: Q01DX001 (ip), vehicle: carboxymethylcellulose (CMC) 118 % of control

ClC1=NC(Cl)C(Cl)=N/C1=N\c1ncn[nH]1 (centres undefined)
inactive: dose: 6.25 mg/kg/injection, schedule: Q01DX009 (ip), vehicle: saline with Tween-80 103 % of control | dose: 12.5 mg/kg/injection, schedule: Q01DX009 (ip), vehicle: saline with Tween-80 97 % of control | dose: 25.0 mg/kg/injection, schedule: Q01DX009 (ip), vehicle: saline with Tween-80 105 % of control | dose: 31.25 mg/kg/injection, schedule: Q01DX009 (ip), vehicle: saline with Tween-80 87 % of control

COc1cccc(CC2=NCCc3cc(OC)c(OC)cc32)c1
inactive: [14] 103 % of control | [15] 101 % of control | dose: 100.0 mg/kg/injection, schedule: Q01DX009 (ip), vehicle: saline 97 % of control | [8] 98 % of control

Nc1nc(N)c2nc(COc3ccc(C(=O)NC(CCC(=O)O)C(=O)O)cc3)cnc2n1 (centres undefined)
inactive: dose: 0.5 mg/kg/injection, schedule: Q01DX009 (ip), vehicle: sodium bicarbonate 122 % of control | dose: 0.8 mg/kg/injection, schedule: Q01DX009 (ip), vehicle: sodium bicarbonate 122 % of control | dose: 2.5 mg/kg/injection, schedule: Q01DX009 (ip), vehicle: sodium bicarbonate 122 % of control | dose: 5.0 mg/kg/injection, schedule: Q01DX009 (ip), vehicle: sodium bicarbonate 100 % of control and 90 % of control

O=[N+]([O-])/C=C/c1ccc([N+](=O)[O-])cc1Cl
inactive: dose: 12.5 mg/kg/injection, schedule: Q01DX009 (ip), vehicle: saline 101 % of control | [14] 103 % of control | [12] 100 % of control | [15] 108 % of control | dose: 50.0 mg/kg/injection, schedule: Q04DX003 (ip), vehicle: saline with Tween-80 119 % of control | [4] 93 % of control | [5] 102 % of control

CCOC12c3c4cccc3C(=O)c3cccc(c31)C(=O)c1cccc(c12)C4=O
inactive: [7] 103 % of control | [16] 105 % of control | [13] 111 % of control | [17] 93 % of control | dose: 400.0 mg/kg/injection, schedule: Q01DX009 (ip), vehicle: saline with Tween-80 109 % of control | [18] 96 % of control

O/N=C1\CCn2cccc21
inactive: [16] 91 % of control | [17] 91 % of control | [18] 87 % of control
